One may read the IC50 as the midpoint of a concentration-inhibition curve. A lower IC50 goes with higher potency.

Where a name gives a salt, the structure may show the parent alone.

The record followed here is patent US11840527B2, “Non-fused thiophene derivatives and their uses” (ENYO PHARMA, priority 2018, dated 2023).

This assay deals with H1N1 (influenza A/New Caledonia/20/99). In words: Antiviral effect on A549 cells infected with H1N1. It counts as cell-based, H1N1 A/New Caledonia/20/99 virus. The following applies: Influenza A virus, MOI 0.1, 48 h post-infection, MUNANA neuraminidase readout. The procedure: The antiviral effect of the compounds of the invention have been tested on A549 cell lines infected with H1N1 (influenza A/New Caledonia/20/99).
Human A549 cells (80,000 cells/well in a 96 well plate) were treated with a range of concentration of test compounds and immediately infected by H1N1 A/New Caledonia/20/99 virus (clinical isolate) at MOI of 0.1 in DMEM/1% Penicillin/streptomycin supplemented with […] TPCK trypsin (Sigma) and incubated at 37° C. in 5% CO2. 48 h post-infection, supernatants (25 μl) were collected and transferred into a 96-well black flat-bottom plate, mixed with 25 μl PBS with Ca++/Mg++ (Thermo Fisher) and 50 μl of 2′-(4-Methylumbelliferyl)-ax-D-N-acetylneuraminic acid sodium salt hydrate stock-solution (20 μM, MUNANA, Sigma). Plates were incubated 1h at 37° C. and reaction is stopped by adding 100 μl of Stop Solution (glycine 0.1 M pH10.7/25% ethanol). The amount of fluorescent product released by MUNANA hydrolysis (4-MU) was measured in a Tecan spectrophotometer with excitation and emission wavelengths of 365 and 450 nm respectively.
For the compound `O=C(Nc1scc(C2CCCC2)c1C(=O)O)c1ccc(NCC2CCOCC2)cc1` [Compound #66, 4-Cyclopentyl-2-[[4-(tetrahydropyran-4-ylmethylamino)benzoyl]amino]thiophene-3-carboxylic acid], the IC50 came out at 15 nM.

With `COC1CN(c2ccc(C(=O)Nc3scc(C4CC(F)(F)C4)c3C(=O)O)cc2)C1` [Compound #107, 4-(3,3-Difluorocyclobutyl)-2-[[4-(3-methoxyazetidin-1-yl)benzoyl]amino]thiophene-3-carboxylic acid], the concentration for half-maximal inhibition (IC50) was 460 nM.

`COC1CN(c2ccc(C(=O)Nc3scc(C4CCCC4)c3C(=O)O)cc2)C1` [Compound #62, 4-Cyclopentyl-2-[[4-(3-methoxyazetidin-1-yl)benzoyl]amino]thiophene-3-carboxylic acid] showed an IC50 of 52 nM.

`COCCNc1ccc(C(=O)Nc2scc(C3(C)CC3)c2C(=O)O)cc1` [Compound #108, 2-[[4-(2-Methoxyethylamino)benzoyl]amino]-4-(1-methylcyclopropyl)thiophene-3-carboxylic acid] showed an IC50 of 560 nM.

`CC(C)(C)[C@H]1CC[C@H](c2csc(NC(=O)c3ccccc3)c2C(=O)O)CC1` [Compound #48, 2-Benzamido-4-(trans-4-tert-butylcyclohexyl)thiophene-3-carboxylic acid] gave a concentration for half-maximal inhibition (IC50) of 350 nM.

In the case of `COc1ccc(-c2csc(NC(=O)c3ccccc3)c2C(=O)O)cc1` [Compound #38, 2-Benzamido-4-(4-methoxyphenyl)thiophene-3-carboxylic acid], it took 1870 nM to reach half-maximal inhibition (IC50).

With `COCCOc1ccc(C(=O)Nc2scc(C3COc4ccccc4C3)c2C(=O)O)cc1` (centres unmarked) [Compound #95, 4-Chroman-3-yl-2-[[4-(2-methoxyethoxy)benzoyl]amino]thiophene-3-carboxylic acid], inhibition was half-maximal at 610 nM (IC50).

`O=C(Nc1scc(C2CCC2)c1C(=O)O)c1ccc(NCC2CCOCC2)cc1` [Compound #99, 4-Cyclobutyl-2-[[4-(tetrahydropyran-4-ylmethylamino)benzoyl]amino]thiophene-3-carboxylic acid] yielded an IC50 of 14 nM.

For `CC(C)Cc1csc(NC(=O)c2ccc(NCC3CCOCC3)cc2)c1C(=O)O` [Compound #113, 4-Isobutyl-2-[[4-(tetrahydropyran-4-ylmethylamino)benzoyl]amino]thiophene-3-carboxylic acid], the midpoint of inhibition, the IC50, lay at 120 nM.

`COc1ccc(C(=O)Nc2scc(C3CCCCC3)c2C(=O)O)cc1OC` [Compound #25, 4-Cyclohexyl-2-[(3,4-dimethoxybenzoyl)amino]thiophene-3-carboxylic acid] yielded an IC50 of 729 nM.

As for `O=C(Nc1scc(C2CCCC2)c1C(=O)O)c1ccccc1` [Compound #10, 2-Benzamido-4-cyclopentyl-thiophene-3-carboxylic acid], 205 nM corresponded to half-maximal inhibition (IC50).

`O=C(Nc1scc(-c2cccc(Cl)c2)c1C(=O)O)c1ccccc1` [Compound #36, 2-Benzamido-4-(3-chlorophenyl)thiophene-3-carboxylic acid] showed an IC50 of 1670 nM.

On to `O=C(Nc1sc(Cl)c(C2CCCCC2)c1C(=O)O)c1ccc(N2CCOCC2)cc1` [Compound #15, 5-Chloro-4-cyclohexyl-2-[(4-morpholinobenzoyl)amino]thiophene-3-carboxylic acid], for which the IC50 is 225 nM.

`COCCNc1ccc(C(=O)Nc2scc(C(C)(C)C)c2C(=O)O)cc1` [Compound #103, 4-tert-Butyl-2-[[4-(2-methoxyethylamino)benzoyl]amino]thiophene-3-carboxylic acid] returned an IC50 of 460 nM.

Take `COCCNc1ccc(C(=O)Nc2scc(C3CCCC3)c2C(=O)O)cc1` [Compound #61, 4-Cyclopentyl-2-[[4-(2-methoxyethylamino)benzoyl]amino]thiophene-3-carboxylic acid]: the IC50 amounted to 100 nM.

For the compound `O=C(Nc1sc(Cl)c(C2CCCCC2)c1C(=O)O)c1ccc(OC(F)F)cc1` [Compound #13, 5-Chloro-4-cyclohexyl-2-[[4-(difluoromethoxy)benzoyl]amino]thiophene-3-carboxylic acid], the IC50 came out at 370 nM.

The compound `CC(C)(C)c1csc(NC(=O)c2ccc(NCC3CCCOC3)cc2)c1C(=O)O` (centres unmarked) [Compound #119, 4-tert-Butyl-2-[[4-(tetrahydropyran-3-ylmethylamino)benzoyl]amino]thiophene-3-carboxylic acid] had a concentration for half-maximal inhibition (IC50) of 100 nM.

`CC(C)(C)c1csc(NC(=O)c2cccc(NCC3CCOCC3)c2)c1C(=O)O` [Compound #110, 4-tert-Butyl-2-[[3-(tetrahydropyran-4-ylmethylamino)benzoyl]amino]thiophene-3-carboxylic acid]: the IC50 stood at 820 nM.

As for `COC1CN(c2ccc(C(=O)Nc3scc(CC(C)C)c3C(=O)O)cc2)C1` [Compound #109, 4-iso-Butyl-2-[[4-(3-methoxyazetidin-1-yl)benzoyl]amino]thiophene-3-carboxylic acid diethylamine salt], the IC50 is 200 nM.

As for `COC1CN(c2ccc(C(=O)Nc3sc(C)c(C)c3C(=O)O)cc2)C1` [Compound #100, 2-[[4-(3-Methoxyazetidin-1-yl)benzoyl]amino]-4,5-dimethyl-thiophene-3-carboxylic acid], it took 44.5 nM to reach half-maximal inhibition (IC50).

On to `O=C(Nc1scc(-c2ccccc2)c1C(=O)O)c1ccccc1` [Compound #43, 2-Benzamido-4-phenyl-thiophene-3-carboxylic acid], for which half-maximal inhibition (IC50) was put at 5950 nM.

In the case of `O=C(Nc1scc(C2CCCC2)c1C(=O)O)c1ccc(N2CCOCC2)cc1` [Compound #59, 4-Cyclopentyl-2-[(4-morpholinobenzoyl)amino]thiophene-3-carboxylic acid], 75 nM corresponded to half-maximal inhibition (IC50).

As for `O=C(Nc1sc(C2CCCCC2)cc1C(=O)O)c1ccc(OC(F)F)cc1` [Compound #41, 5-Cyclohexyl-2-[[4-(difluoromethoxy)benzoyl]amino]thiophene-3-carboxylic acid], the IC50 worked out at 2570 nM.

In turn, `CC1(C)C(c2csc(NC(=O)c3ccccc3)c2C(=O)O)C1(C)C` [Compound #39, 2-Benzamido-4-(2,2,3,3-tetramethylcyclopropyl)thiophene-3-carboxylic acid] yielded an IC50 of 2370 nM.

`Cc1sc(NC(=O)c2ccc(NCC3CCOCC3)cc2)c(C(=O)O)c1C` [Compound #102, 4,5-Dimethyl-2-[[4-(tetrahydropyran-4-ylmethylamino)benzoyl]amino]thiophene-3-carboxylic acid] had an IC50 of 820 nM.

The compound `O=C(Nc1scc(C2CCCCC2)c1C(=O)O)c1ccc(OC(F)F)cc1` [Compound #11, 4-Cyclohexyl-2-[[4-(difluoromethoxy)benzoyl]amino]thiophene-3-carboxylic acid] came in with an IC50 of 412 nM.

As to `COC1CN(c2ccc(C(=O)Nc3scc(C(C)(C)C)c3C(=O)O)c(F)c2)C1` [Compound #121, 4-tert-Butyl-2-[[2-fluoro-4-(3-methoxyazetidin-1-yl)benzoyl]amino]thiophene-3-carboxylicacid], the IC50 came to 510 nM.

On to `Cc1ccc(-c2c(Cl)sc(NC(=O)c3ccccc3)c2C(=O)O)cc1` [Compound #24, 2-Benzamido-5-chloro-4-(p-tolyl)thiophene-3-carboxylic acid], for which 350 nM corresponded to half-maximal inhibition (IC50).

`COCCOc1ccc(C(=O)Nc2scc(C(C)(C)C)c2C(=O)O)cc1` [Compound #116, 4-tert-Butyl-2-[[4-(2-methoxyethoxy)benzoyl]amino]thiophene-3-carboxylic acid] returned an IC50 of 10 nM.
